Laboratory results as given in patent US11613531B2, “Inhibitors of RHO associated coiled-coil containing protein kinase” (Kadmon Corporation, LLC, priority 2017, dated 2023).
Like-named read-outs stand apart in the source and are kept apart here.

Experiments:
[1] = system: human ACTA2 gene promoter luciferase reporter in NIH3T3 cells; test: NIH3T3 Acta2-promoter driven-luciferase assay; format: cell-based; settings: read-out: NIH3T3 Acta2-luc, IC50
Protocol: NIH3T3 Cells Acta2-Promoter Driven-Luciferase Assay.
A NIH3T3 cell line stably expressing a luciferase reporter driven by the human ACTA2 gene promoter (−1000-1 bp) was established (NIH3T3-Acta2-luciferase). The cells were plated to confluence and treated with the test compounds plus TGFβ1 for 24 hr. Cells were then lysed and luciferase activity was measured using the LightSwitch luciferase kit from Active Motif.
In vitro activities for the compounds were measured with Z′-lyte kinase kit (ThermoFisher Scientific). The percent inhibition rate was calculated by normalizing the kinase activity value obtained with 1 μM compound treatment against DMSO control value and then applied to the formula, [1-(compound/DMSO)]×100%. IC50s were calculated using the nonlinear regression curve fit function of the GraphPad Prism software with kinase activities data measured with 9 points 2-fold serial dilution of compounds treatment. In cell pMLC IC50s were calculated with data obtained from A7R5 cell experiments. A7R5 cells were treated with 9 points 2-fold serial dilution of compounds and ppMlc (T18/S19) levels were determined to calculate cellular IC50 values of the compounds using the nonlinear regression curve fit function of the GraphPad Prism software. NIH3T3 cells stably expressing ACTA2-promoter-driven-luciferase were applied to measure ROCK compounds functional IC50s in cells. Cells were plated in 96 well plates to confluence and treated with 9 points serial dilution of compounds in combination with TGFβ1 for 24 hr. Luciferase activities were measured and compound's IC50s were calculated using the nonlinear regression curve fit function of the GraphPad Prism software.
ROCK inhibitors can be effectively rank ordered by ACTA2-promoter-driven-luciferase reporter cell assay. NIH3T3 cells stably expressing ACTA2-promoter-driven-luciferase were plated in 96 well plates to confluence and treated with 9 points serial dilution of compounds in combination with TGFβ1 for 24 hr. Luciferase activities were measured and compound's IC50s were calculated. By this assay multiple compounds of the invention gave IC50s under 200 nM.

[2] = molecular target: Recombinant ROCK2 (amino acids 1-552) (Homo sapiens (Human), UniProt O75116); test: Z′-Lyte kinase assay, ROCK2; format: biochemical; settings: for inhibition at 1 µM: 1 μM compound
Summary of the method: (§1)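 Recombinant human ROCK1 (aa 1-535) or ROCK2 (aa 1-552) activity read by Z′-Lyte kinase assay. Percent inhibition at 1 μM compound was normalized to DMSO control; IC50 from 9-point 2-fold serial dilutions by nonlinear regression.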

[3] = system: ppMlc (T18/S19) levels in A7R5 cells; test: A7R5 in-cell ELISA (pMLC); format: cell-based, Rat; settings: Rattus norvegicus, A7R5, A7R5 cells; for inhibition at 1 µM: 1 μM compound; for inhibition at 1 µM / inhibition at 10 µM: read-out: pMLC % inh A7R5 @ [conc]; for inhibition at 10 µM: 10 μM compound
Summary of the method: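 A7R5 rat aortic smooth muscle cells seeded 24 h, then treated 90 min with a 9-point 2-fold compound dilution series. Fixed cells probed for ppMlc (T18/S19) by colorimetric in-cell ELISA; cellular IC50 from nonlinear regression curve fit.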

[4] = molecular target: Recombinant ROCK1 (amino acids 1-535) (Homo sapiens (Human), UniProt Q13464); test: Z′-Lyte kinase assay, ROCK1; format: biochemical
Summary of the method: as §1

[5] = NIH3T3, 24 h, with TGFβ1, 24 hr
[6] = read-out: ROCK2 % inh. @ [conc]
[7] = NIH3T3, 24 h, NIH3T3 cells, plus TGFβ1 for 24 hr
[8] = 9 points 2-fold serial dilution

Recombinant ROCK2 (amino acids 1-552), sequence (O75116 1-552): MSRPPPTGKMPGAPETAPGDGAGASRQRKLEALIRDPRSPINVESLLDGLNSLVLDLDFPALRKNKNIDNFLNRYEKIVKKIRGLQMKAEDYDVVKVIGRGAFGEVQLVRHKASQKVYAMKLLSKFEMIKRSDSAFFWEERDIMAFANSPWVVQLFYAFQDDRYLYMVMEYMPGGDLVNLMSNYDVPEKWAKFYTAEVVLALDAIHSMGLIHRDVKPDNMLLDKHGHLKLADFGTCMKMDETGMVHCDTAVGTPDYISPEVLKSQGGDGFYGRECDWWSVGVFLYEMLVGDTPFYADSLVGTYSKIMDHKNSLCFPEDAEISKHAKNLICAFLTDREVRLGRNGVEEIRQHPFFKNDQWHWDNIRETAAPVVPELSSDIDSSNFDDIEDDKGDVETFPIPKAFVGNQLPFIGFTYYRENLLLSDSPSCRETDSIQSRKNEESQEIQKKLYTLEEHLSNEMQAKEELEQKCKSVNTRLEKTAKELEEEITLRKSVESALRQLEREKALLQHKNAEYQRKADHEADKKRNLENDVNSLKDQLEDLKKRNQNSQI
Recombinant ROCK1 (amino acids 1-535), sequence (Q13464 1-535): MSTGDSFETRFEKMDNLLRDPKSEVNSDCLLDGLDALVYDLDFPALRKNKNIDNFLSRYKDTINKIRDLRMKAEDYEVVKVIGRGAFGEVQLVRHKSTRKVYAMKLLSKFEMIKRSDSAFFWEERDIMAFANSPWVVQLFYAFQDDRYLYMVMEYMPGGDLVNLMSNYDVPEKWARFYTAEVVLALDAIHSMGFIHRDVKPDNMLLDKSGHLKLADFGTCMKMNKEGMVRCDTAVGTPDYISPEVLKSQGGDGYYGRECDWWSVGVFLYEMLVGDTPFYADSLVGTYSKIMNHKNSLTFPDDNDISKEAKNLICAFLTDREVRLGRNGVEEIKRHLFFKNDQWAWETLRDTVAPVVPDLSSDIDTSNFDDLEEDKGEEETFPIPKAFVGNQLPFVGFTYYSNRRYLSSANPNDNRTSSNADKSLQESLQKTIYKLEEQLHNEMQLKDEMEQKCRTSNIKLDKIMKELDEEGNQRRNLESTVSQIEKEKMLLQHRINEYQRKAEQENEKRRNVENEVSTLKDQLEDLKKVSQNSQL

| Structure (SMILES) | IC50 [1, 5] [nM] | IC50 [3] [nM] | inhibition at 1 µM [3] [%] | IC50 [1, 7] [nM] | IC50 [2, 8] [nM] | IC50 ([3]; ppMlc (T18/S19)) [nM] | IC50 [4, 8] [nM] | IC50 [2] [nM] | further results |
| --- | --- | --- | --- | --- | --- | --- | --- | --- | --- |
| Cc1nc(N2C3CCC2CNC3)nc(Nc2ccc3[nH]ncc3c2)c1C [Example 29, N-(2-(3,8-diazabicyclo[3.2.1]octan-8-yl)-5,6-dimethylpyrimidin-4-yl)-1H-indazol-5-amine] | 1090 | 147 | 39.1 | – | – | – | – | – | inhibition at 1 µM [2, 6]: 102%; IC50 [4]: 42 nM |
| Cc1cc(Nc2ccc3[nH]ncc3c2)nc(N2CCCNCC2C)n1 (stereo not shown) [Example 117, N-(6-methyl-2-(2-methyl-1,4-diazepan-1-yl)pyrimidin-4-yl)-1H-indazol-5-amine] | – | – | 50.6 | 1270 | 45 | 168 | 15 | – | – |
| Clc1cnc(N2CC3CC2CN3)nc1Nc1ccc2[nH]ncc2c1 (stereo not shown) [Example 194, N-(2-(2,5-diazabicyclo[2.2.1]heptan-2-yl)-5-chloropyrimidin-4-yl)-1H-indazol-5-amine] | – | – | 31.6 | 1540 | 23 | 176 | 41 | – | inhibition at 1 µM [2, 6]: 98.3% |
| COc1cnc(N2C3CCC2CNC3)nc1Nc1ccc2[nH]ncc2c1 [Example 198, N-(2-(3,8-diazabicyclo[3.2.1]octan-8-yl)-5-methoxypyrimidin-4-yl)-1H-indazol-5-amine] | 413 | 57 | 38 | – | – | – | – | 5 | inhibition at 1 µM [2, 6]: 104%; IC50 [4]: 4.1 nM |
| c1cc(Nc2ccc3[nH]ncc3c2)nc(N2C3CNCC2C3)n1 [Example 200, N-(2-(3,6-diazabicyclo[3.1.1]heptan-6-yl)pyrimidin-4-yl)-1H-indazol-5-amine] | – | – | – | 1600 | 1.6 | 275 | 28 | – | inhibition at 10 µM [3]: 49.8% |
| c1cc(Nc2ccc3[nH]ncc3c2)nc(N2CC3CC2CN3)n1 (stereo not shown) [Example 201, N-(2-(2,5-diazabicyclo[2.2.1]heptan-2-yl)pyrimidin-4-yl)-1H-indazol-5-amine] | – | – | 50.1 | 1640 | 27 | 168 | 37 | – | – |
| Cc1cc(Nc2ccc3[nH]ncc3c2)nc(N2CCNC(C)C2)n1 (stereo not shown) [Example 204, N-(6-methyl-2-(3-methylpiperazin-1-yl)pyrimidin-4-yl)-1H-indazol-5-amine] | – | – | – | 1780 | 85 | 231 | 20 | – | inhibition at 10 µM [3]: 70% |
| Cc1cc(Nc2ccc3[nH]ncc3c2)nc(N2CCNCC2C)n1 (stereo not shown) [Example 207, N-(6-methyl-2-(2-methylpiperazin-1-yl)pyrimidin-4-yl)-1H-indazol-5-amine] | – | – | – | 1260 | 104 | 351 | 41 | – | inhibition at 1 µM [2, 6]: 91%; inhibition at 10 µM [3]: 52.3% |
| Cc1cc(Nc2ccc3[nH]ncc3c2)nc(N2C3CCC2CNC3)n1 [Example 209, N-(2-(3,8-diazabicyclo[3.2.1]octan-8-yl)-6-methylpyrimidin-4-yl)-1H-indazol-5-amine] | – | – | 53.2 | 332 | 34 | 47 | 5 | – | – |
| Cc1cc(Nc2ccc3[nH]ncc3c2)nc(N2C3CNCC2C3)n1 [Example 213, N-(2-(3,6-diazabicyclo[3.1.1]heptan-6-yl)-6-methylpyrimidin-4-yl)-1H-indazol-5-amine] | – | – | 34 | 230 | 1.6 | 60 | 0.2 | – | inhibition at 1 µM [2, 6]: 101% |
| Fc1cnc(N2CCNCC2)nc1Nc1ccc2[nH]ncc2c1 [Example 214, N-(5-fluoro-2-(piperazin-1-yl)pyrimidin-4-yl)-1H-indazol-5-amine] | – | – | – | 1250 | 26 | 323 | 38 | – | inhibition at 10 µM [3]: 63% |
| Fc1cnc(N2CCCNCC2)nc1Nc1ccc2[nH]ncc2c1 [Example 215, N-(2-(1,4-diazepan-1-yl)-5-fluoropyrimidin-4-yl)-1H-indazol-5-amine] | – | – | – | 1220 | 37 | 201 | 40 | – | IC50 ([1]; NIH3T3 cells, plus TGFβ1 for 24 hr): 1780 nM; inhibition at 10 µM [3]: 68.5% |
| Fc1cnc(N2CC3CCC(C2)N3)nc1Nc1ccc2[nH]ncc2c1 [Example 217, N-(2-(3,8-diazabicyclo[3.2.1]octan-3-yl)-5-fluoropyrimidin-4-yl)-1H-indazol-5-amine] | – | – | 51.2 | 963 | 28 | 127 | 6 | – | – |
| CC1CNCCN(c2ncc(F)c(Nc3ccc4[nH]ncc4c3)n2)C1 (stereo not shown) [Example 218, N-(5-fluoro-2-(6-methyl-1,4-diazepan-1-yl)pyrimidin-4-yl)-1H-indazol-5-amine] | – | – | 53 | 6110 | – | 430 | 65 | – | inhibition at 1 µM [2, 6]: 99.5% |
| COc1nc(N2C3CCC2CNC3)nc(Nc2ccc3[nH]ncc3c2)c1F [Example 319, N-(2-(3,8-diazabicyclo[3.2.1]octan-8-yl)-5-fluoro-6-methoxypyrimidin-4-yl)-1H-indazol-5-amine] | 59 | – | – | – | – | – | – | 1.1 | inhibition at 0.5 µM ([2]; 0.5 μM compound, read-out: ROCK2 % inh. @ [conc]): 100%; inhibition at 0.5 µM ([4]; 0.5 μM compound, read-out: ROCK1 % inh. @ [conc]): 98% |
| CCN(C)c1cc(Nc2ccc3[nH]ncc3c2)nc(N2C3CCC2CNC3)n1 [Example 332, 2-(3,8-diazabicyclo[3.2.1]octan-8-yl)-N4-ethyl-N6-(1H-indazol-5-yl)-N4-methylpyrimidine-4,6-diamine] | 80 | 18 | – | – | – | – | – | 1.2 | – |
| Cc1c(C#N)nc(N2C3CCC2CNC3)nc1Nc1ccc2[nH]ncc2c1 [Example 333, 6-((1H-indazol-5-yl)amino)-2-(3,8-diazabicyclo[3.2.1]octan-8-yl)-5-methylpyrimidine-4-carbonitrile] | 1600 | 577 | – | – | – | – | – | 44 | – |
| CNC1CC2CC1CN2c1ncc(F)c(Nc2ccc3[nH]ncc3c2)n1 (stereo not shown) [Example 334, N-(5-fluoro-2-(5-(methylamino)-2-azabicyclo[2.2.1]heptan-2-yl)pyrimidin-4-yl)-1H-indazol-5-amine] | 1650 | 889 | – | – | – | – | – | 121 | – |
| FC(F)(F)c1nc(N2C3CCC2CNC3)nc(Nc2ccc3[nH]ncc3c2)c1Cl [Example 340, N-(2-(3,8-diazabicyclo[3.2.1]octan-8-yl)-5-chloro-6-(trifluoromethyl)pyrimidin-4-yl)-1H-indazol-5-amine] | 894 | 362 | – | – | – | – | – | 20 | – |
| FC(F)(F)c1cc(Nc2ccc3[nH]ncc3c2)nc(N2C3CCC2CNC3)n1 [Example 341, N-(2-(3,8-diazabicyclo[3.2.1]octan-8-yl)-6-(trifluoromethyl)pyrimidin-4-yl)-1H-indazol-5-amine] | 58 | 27 | – | – | – | – | – | 5.8 | – |
| CN(C)c1nc(N2C3CCC2CNC3)nc(Nc2ccc3[nH]ncc3c2)c1F [Example 342] | 1950 | 26 | – | – | – | – | – | 0.1 | – |
| Cc1nc(N2C3CCC2CNC3)nc(Nc2ccc3[nH]ncc3c2)c1C#N [Example 343, 4-((1H-indazol-5-yl)amino)-2-(3,8-diazabicyclo[3.2.1]octan-8-yl)-6-methylpyrimidine-5-carbonitrile] | 223 | 127 | – | – | – | – | – | 5.6 | – |
| CN(C)c1nc(N2C3CCC2CNC3)nc(Nc2ccc3[nH]ncc3c2)c1Cl [Example 344, 2-(3,8-diazabicyclo[3.2.1]octan-8-yl)-5-chloro-N^4-(1H-indazol-5-yl)-N^6,N^6-dimethylpyrimidine-4,6-diamine] | 192 | 82 | – | – | – | – | – | 1.7 | – |
